Laboratory results as given in US9427398B2, “Parenteral solutions containing metolazone” (Academic Pharmaceuticals Incorporated, priority 2008, dated 2016).

Experiments:
[1] = test system: Sprague-Dawley male rats; assay: Diuretic action of parenteral formulations, intraperitoneal administration in rats (24 h urine volume and Na+); format: in vivo, rat; details: for urine output: 24 h urine, n=6, mean±SD; for urine volume voided over 24 hours compared with placebo: intraperitoneal, furosemide 2, 4, 6 mg/kg (P≦0.01), metolazone 2 mg/kg in 2 different formulations
Procedure: Sprague-Dawley male rats (400 to 500 g) were used for the in vivo experiments. The rats were housed at a controlled temperature (22° C.), fed regularly and had free access to water. Rats were divided into 7 groups with 6 animals per group for the purposes of the study. The rats were deprived of food and water for 24 hours before beginning the study. After this fasting period, normal saline ([…]) was given by oral route. […] All rats were placed in metabolic cages for urine collection. Urine was collected for 24 hours after injection, and the volume measured and the (Na^+) concentration in urine were determined using an ion-specific electrode method, NOVA CRT (NOVA Biomedical, Waltham, Mass.) All data are presented as mean±SD of n observations. For statistical comparison, one-way analysis or variance ANOVA or Student t test was employed. A two-sided P value≦0.05 was considered significant.

[2] = cited from earlier work

| Compound | urine output ([1]; 2 mg/kg intraperitoneally) | urine output ([1]; 4 mg/kg intraperitoneally) | urine output ([1]; 6 mg/kg intraperitoneally) | urine volume voided over 24 hours compared with placebo [1] | solubility in water [2] |
| --- | --- | --- | --- | --- | --- |
| NS(=O)(=O)c1cc(C(=O)O)c(NCc2ccco2)cc1Cl [Furosemide, furosemide] | 9 ± 1 mL/day | 14 ± 2 mL/day | 17 ± 2 mL/day | significantly greater |  |
| Cc1ccccc1N1C(=O)c2cc(S(N)(=O)=O)c(Cl)cc2NC1C (stereo not shown) [Metolazone, 7 chloro-1,2,3,4-tetrahydro-2-methyl-3-(-2-methylphenyl)-4-oxo-6-quinazoline sulfonamide] | 16 ± 3 mL/day |  |  | greater in each instance | sparingly soluble |
